Measurements from the CheMixHub ionic liquid set.

Test: xn = mol fraction of the nth substance listed

CC(=O)[O-].CC[n+]1ccn(C)c1 + CCO + O
viscosity [mPa·s], 101 kPa
Conditions | 298.15 K | 313.15 K | 328.15 K | 343.15 K
x2 = 0.1044, x3 = 0.8465 | 3.75 | 2.34 | 1.6 | 1.15
x2 = 0.1179, x3 = 0.7408 | 9.38 | 5.57 | 3.58 | 2.49
x2 = 0.2002, x3 = 0.3044 | 31.9 | 18.16 | 11.45 | 7.86
x2 = 0.2242, x3 = 0.3101 | 28 | 16.28 | 10.41 | 7.22
x2 = 0.2489, x3 = 0.6021 | 8.23 | 5.06 | – | –
x2 = 0.2635, x3 = 0.6879 | 3.8 | 2.41 | 1.64 | 1.19
x2 = 0.2995, x3 = 0.4047 | 14.14 | 8.83 | 5.91 | 4.2
x2 = 0.4124, x3 = 0.1068 | 20.57 | 12.7 | 8.57 | 6.09
x2 = 0.463, x3 = 0.2523 | 10.07 | 6.66 | – | –
x2 = 0.4916, x3 = 0.4053 | 4.47 | 2.99 | – | –
x2 = 0.5914, x3 = 0.1068 | 8.43 | – | – | –
x2 = 0.7052, x3 = 0.1967 | 3.19 | – | – | –

CC(=O)[O-].CC[n+]1ccn(C)c1 + CCS(=O)(=O)[O-].[NH4+]
101 kPa, x2 = 0
Conditions | electrical conductivity [S/m] | viscosity [mPa·s]
303.15 K | 0.374 | 93.6
318.15 K | 0.76 | 44.2

CCCO + CC[n+]1ccccc1.N#C[N-]C#N
Conditions | viscosity [mPa·s]
288.15 K, 100 kPa, x1 = 1 | 2.51

CCCO + CC[n+]1ccn(C)c1.COS(=O)(=O)[O-]
101 kPa, x2 = 0
Conditions | viscosity [mPa·s]
283.15 K | 2.78
293.15 K | 2.18
313.15 K | 1.36
323.15 K | 1.11

CCCC[N+](C)(CCCC)CCCC.N#C[N-]C#N + CC[n+]1ccn(C)c1.N#C[N-]C#N
viscosity [mPa·s], 101 kPa
Conditions | 303.15 K | 333.15 K | 343.15 K | 353.15 K
x2 = 0.2114 | 109.5 | – | 20.6 | 15.38
x2 = 0.3975 | – | 19.3 | – | 11.19
x2 = 0.6047 | 33 | – | – | –

OCC(F)(F)F + CC[n+]1ccn(C)c1.N#C[N-]C#N
100 kPa, x2 = 0
Conditions | viscosity [mPa·s]
298.15 K | 1.77
308.15 K | 1.38

CCCCn1cc[n+](CCOCCOCC[n+]2ccn(CCCC)c2)c1.O=S(=O)([N-]S(=O)(=O)C(F)(F)F)C(F)(F)F.O=S(=O)([N-]S(=O)(=O)C(F)(F)F)C(F)(F)F + CC[n+]1ccn(C)c1.N#C[N-]C#N + O=S(=O)([N-]S(=O)(=O)C(F)(F)F)C(F)(F)F.[Li+]
100 kPa, x1 = 0.1442, x2 = 0.7526
Conditions | electrical conductivity [S/m]
298 K | 0.677
303 K | 0.795
313 K | 1.05
323 K | 1.39
333 K | 1.71
343 K | 2.08

CC[S+](CC)CCOCC[S+](CC)CC.O=S(=O)([N-]S(=O)(=O)C(F)(F)F)C(F)(F)F.O=S(=O)([N-]S(=O)(=O)C(F)(F)F)C(F)(F)F + CC[n+]1ccn(C)c1.N#C[N-]C#N + O=S(=O)([N-]S(=O)(=O)C(F)(F)F)C(F)(F)F.[Li+]
100 kPa, x1 = 0.1609, x2 = 0.7379
Conditions | electrical conductivity [S/m]
298 K | 0.637
303 K | 0.742
313 K | 0.987
323 K | 1.28
333 K | 1.64
343 K | 2

C[N+]1(CCOCCOCCOCC[N+]2(C)CCCC2)CCCC1.N#C[N-]C#N.N#C[N-]C#N + CC[n+]1ccn(C)c1.N#C[N-]C#N + O=S(=O)([N-]S(=O)(=O)C(F)(F)F)C(F)(F)F.[Li+]
100 kPa, x1 = 0.252, x2 = 0.6578
Conditions | electrical conductivity [S/m]
298 K | 0.522
303 K | 0.63
313 K | 0.854
323 K | 1.16
333 K | 1.48
343 K | 1.86
